Test results: ChEMBL document CHEMBL1641588, “3-[Benzimidazo- and 3-[benzothiadiazoleimidazo-(1,2-c)quinazolin-5-yl]-2H-chromene-2-ones as potent antimicrobial agents” (2011)
In brackets after ≈: the same amount, converted by molar mass.

System: Candida albicans
Assay: Antifungal activity against Candida albicans by liquid dilution method
Assay type: functional
Conditions: not given

`O=c1oc2c(Br)cccc2cc1-c1nc2ccccc2c2nc3c4nsnc4ccc3n12` and `O=c1oc2c(Br)cc(Br)cc2cc1-c1nc2ccccc2c2nc3c4nsnc4ccc3n12` are within 1.5-fold of each other in MIC: 35 µg/mL (≈ 70 µM) for the first, 40 µg/mL (≈ 69.1 µM) for the second.

In the case of `O=c1oc2c(Cl)cc(Cl)cc2cc1-c1nc2ccccc2c2nc3c4nsnc4ccc3n12`, the MIC is reported as 45 µg/mL (≈ 91.8 µM).

System: Aspergillus niger
Assay: Antifungal activity against Aspergillus niger by liquid dilution method
Assay type: functional
Conditions: not given

`O=c1oc2c(Br)cccc2cc1-c1nc2ccccc2c2nc3c4nsnc4ccc3n12` and `O=c1oc2c(Br)cc(Br)cc2cc1-c1nc2ccccc2c2nc3c4nsnc4ccc3n12` are within 1.5-fold of each other in MIC: 35 µg/mL (≈ 70 µM) for the first, 25 µg/mL (≈ 43.2 µM) for the second.

In the case of `O=c1oc2c(Cl)cc(Cl)cc2cc1-c1nc2ccccc2c2nc3c4nsnc4ccc3n12`, the MIC is reported as 40 µg/mL (≈ 81.6 µM).

System: Bacillus subtilis
Assay: Antibacterial activity against Bacillus subtilis at 1000 ug/mL after 72 hrs by agar diffusion assay
Assay type: functional
Conditions: read-out: IZ

Going from `O=c1oc2c(Br)cccc2cc1-c1nc2ccccc2c2nc3c4nsnc4ccc3n12` to `O=c1oc2c(Br)cc(Br)cc2cc1-c1nc2ccccc2c2nc3c4nsnc4ccc3n12`, the zone of inhibition at 1000 µg/mL rises from 29 mm to 41 mm.

With `O=c1oc2c(Cl)cc(Cl)cc2cc1-c1nc2ccccc2c2nc3c4nsnc4ccc3n12` the zone of inhibition at 1000 µg/mL was 34 mm.

System: Streptococcus pyogenes
Assay: Antibacterial activity against Streptococcus pyogenes at 1000 ug/mL after 72 hrs by agar diffusion assay
Assay type: functional
Conditions: read-out: IZ

First: O=c1oc2c(Br)cccc2cc1-c1nc2ccccc2c2nc3c4nsnc4ccc3n12
Second: O=c1oc2c(Br)cc(Br)cc2cc1-c1nc2ccccc2c2nc3c4nsnc4ccc3n12
The zone of inhibition at 1000 µg/mL of the first is lower: 23 mm for the first, 37 mm for the second.

For `O=c1oc2c(Cl)cc(Cl)cc2cc1-c1nc2ccccc2c2nc3c4nsnc4ccc3n12`, the zone of inhibition at 1000 µg/mL was 20 mm.

System: Streptococcus pyogenes
Assay: Antibacterial activity against Streptococcus pyogenes by liquid dilution method
Assay type: functional
Conditions: not given

Compared with `O=c1oc2c(Br)cccc2cc1-c1nc2ccccc2c2nc3c4nsnc4ccc3n12`, `O=c1oc2c(Br)cc(Br)cc2cc1-c1nc2ccccc2c2nc3c4nsnc4ccc3n12` is 2.7-fold lower in MIC: 40 µg/mL (≈ 79.9 µM) for the first, 15 µg/mL (≈ 25.9 µM) for the second.

Work on `O=c1oc2c(Cl)cc(Cl)cc2cc1-c1nc2ccccc2c2nc3c4nsnc4ccc3n12` yielded an MIC of 35 µg/mL (≈ 71.4 µM).

System: Aspergillus niger
Assay: Antifungal activity against Aspergillus niger at 1000 ug/mL after 72 hrs by agar diffusion assay
Assay type: functional
Conditions: read-out: IZ

Compared with `O=c1oc2c(Br)cccc2cc1-c1nc2ccccc2c2nc3c4nsnc4ccc3n12`, `O=c1oc2c(Br)cc(Br)cc2cc1-c1nc2ccccc2c2nc3c4nsnc4ccc3n12` is higher in zone of inhibition at 1000 µg/mL: 31 mm for the first, 34 mm for the second.

`O=c1oc2c(Cl)cc(Cl)cc2cc1-c1nc2ccccc2c2nc3c4nsnc4ccc3n12` was tested, and the zone of inhibition at 1000 µg/mL was 33 mm.

System: Salmonella typhimurium
Assay: Antibacterial activity against Salmonella Typhimurium at 1000 ug/mL after 72 hrs by agar diffusion assay
Assay type: functional, Salmonella enterica subsp. enterica serovar Typhimurium
Conditions: Salmonella enterica, read-out: IZ

Compared with `O=c1oc2c(Br)cccc2cc1-c1nc2ccccc2c2nc3c4nsnc4ccc3n12`, `O=c1oc2c(Br)cc(Br)cc2cc1-c1nc2ccccc2c2nc3c4nsnc4ccc3n12` is higher in zone of inhibition at 1000 µg/mL: 29 mm for the first, 45 mm for the second.

With `O=c1oc2c(Cl)cc(Cl)cc2cc1-c1nc2ccccc2c2nc3c4nsnc4ccc3n12` the zone of inhibition at 1000 µg/mL was 31 mm.

System: Escherichia coli
Assay: Antibacterial activity against Escherichia coli at 1000 ug/mL after 72 hrs by agar diffusion assay
Assay type: functional
Conditions: read-out: IZ

Compared with `O=c1oc2c(Br)cccc2cc1-c1nc2ccccc2c2nc3c4nsnc4ccc3n12`, `O=c1oc2c(Br)cc(Br)cc2cc1-c1nc2ccccc2c2nc3c4nsnc4ccc3n12` is higher in zone of inhibition at 1000 µg/mL: 31 mm for the first, 42 mm for the second.

`O=c1oc2c(Cl)cc(Cl)cc2cc1-c1nc2ccccc2c2nc3c4nsnc4ccc3n12` showed a zone of inhibition at 1000 µg/mL of 32 mm.

System: Staphylococcus aureus
Assay: Antibacterial activity against Staphylococcus aureus at 1000 ug/mL after 72 hrs by agar diffusion assay
Assay type: functional
Conditions: read-out: IZ

Compared with `O=c1oc2c(Br)cccc2cc1-c1nc2ccccc2c2nc3c4nsnc4ccc3n12`, `O=c1oc2c(Br)cc(Br)cc2cc1-c1nc2ccccc2c2nc3c4nsnc4ccc3n12` is higher in zone of inhibition at 1000 µg/mL: 35 mm for the first, 48 mm for the second.

In the case of `O=c1oc2c(Cl)cc(Cl)cc2cc1-c1nc2ccccc2c2nc3c4nsnc4ccc3n12`, the zone of inhibition at 1000 µg/mL is reported as 39 mm.

System: Staphylococcus aureus
Assay: Antibacterial activity against Staphylococcus aureus by liquid dilution method
Assay type: functional
Conditions: not given

Compared with `O=c1oc2c(Br)cccc2cc1-c1nc2ccccc2c2nc3c4nsnc4ccc3n12`, `O=c1oc2c(Br)cc(Br)cc2cc1-c1nc2ccccc2c2nc3c4nsnc4ccc3n12` is 6-fold lower in MIC: 30 µg/mL (≈ 60 µM) for the first, 5 µg/mL (≈ 8.63 µM) for the second.

`O=c1oc2c(Cl)cc(Cl)cc2cc1-c1nc2ccccc2c2nc3c4nsnc4ccc3n12` showed an MIC of 35 µg/mL (≈ 71.4 µM).

System: Klebsiella pneumoniae
Assay: Antibacterial activity against Klebsiella pneumoniae by liquid dilution method
Assay type: functional
Conditions: not given

Going from `O=c1oc2c(Br)cccc2cc1-c1nc2ccccc2c2nc3c4nsnc4ccc3n12` to `O=c1oc2c(Br)cc(Br)cc2cc1-c1nc2ccccc2c2nc3c4nsnc4ccc3n12`, the MIC falls from 25 µg/mL (≈ 50 µM) to 5 µg/mL (≈ 8.63 µM) (5-fold).

Compound `O=c1oc2c(Cl)cc(Cl)cc2cc1-c1nc2ccccc2c2nc3c4nsnc4ccc3n12` has an MIC of 35 µg/mL (≈ 71.4 µM).

System: Aspergillus flavus
Assay: Antifungal activity against Aspergillus flavus by liquid dilution method
Assay type: functional
Conditions: not given

`O=c1oc2c(Br)cccc2cc1-c1nc2ccccc2c2nc3c4nsnc4ccc3n12` and `O=c1oc2c(Br)cc(Br)cc2cc1-c1nc2ccccc2c2nc3c4nsnc4ccc3n12` are within 1.5-fold of each other in MIC: 50 µg/mL (≈ 99.9 µM) for the first, 35 µg/mL (≈ 60.4 µM) for the second.

With `O=c1oc2c(Cl)cc(Cl)cc2cc1-c1nc2ccccc2c2nc3c4nsnc4ccc3n12` the MIC was 50 µg/mL (≈ 102 µM).

System: Aspergillus flavus
Assay: Antifungal activity against Aspergillus flavus at 1000 ug/mL after 72 hrs by agar diffusion assay
Assay type: functional
Conditions: read-out: IZ

Compared with `O=c1oc2c(Br)cccc2cc1-c1nc2ccccc2c2nc3c4nsnc4ccc3n12`, `O=c1oc2c(Br)cc(Br)cc2cc1-c1nc2ccccc2c2nc3c4nsnc4ccc3n12` is higher in zone of inhibition at 1000 µg/mL: 33 mm for the first, 37 mm for the second.

`O=c1oc2c(Cl)cc(Cl)cc2cc1-c1nc2ccccc2c2nc3c4nsnc4ccc3n12` showed a zone of inhibition at 1000 µg/mL of 29 mm.

System: Klebsiella pneumoniae
Assay: Antibacterial activity against Klebsiella pneumoniae at 1000 ug/mL after 72 hrs by agar diffusion assay
Assay type: functional
Conditions: read-out: IZ

Compared with `O=c1oc2c(Br)cccc2cc1-c1nc2ccccc2c2nc3c4nsnc4ccc3n12`, `O=c1oc2c(Br)cc(Br)cc2cc1-c1nc2ccccc2c2nc3c4nsnc4ccc3n12` is higher in zone of inhibition at 1000 µg/mL: 30 mm for the first, 46 mm for the second.

`O=c1oc2c(Cl)cc(Cl)cc2cc1-c1nc2ccccc2c2nc3c4nsnc4ccc3n12` was tested, and the zone of inhibition at 1000 µg/mL was 34 mm.

System: Salmonella typhimurium
Assay: Antibacterial activity against Salmonella Typhimurium by liquid dilution method
Assay type: functional, Salmonella enterica subsp. enterica serovar Typhimurium
Conditions: Salmonella enterica

Compared with `O=c1oc2c(Br)cccc2cc1-c1nc2ccccc2c2nc3c4nsnc4ccc3n12`, `O=c1oc2c(Br)cc(Br)cc2cc1-c1nc2ccccc2c2nc3c4nsnc4ccc3n12` is 14-fold lower in MIC: 35 µg/mL (≈ 70 µM) for the first, 2.5 µg/mL (≈ 4.32 µM) for the second.

Compound `O=c1oc2c(Cl)cc(Cl)cc2cc1-c1nc2ccccc2c2nc3c4nsnc4ccc3n12` has an MIC of 25 µg/mL (≈ 51 µM).

System: Bacillus subtilis
Assay: Antibacterial activity against Bacillus subtilis by liquid dilution method
Assay type: functional
Conditions: not given

Compared with `O=c1oc2c(Br)cccc2cc1-c1nc2ccccc2c2nc3c4nsnc4ccc3n12`, `O=c1oc2c(Br)cc(Br)cc2cc1-c1nc2ccccc2c2nc3c4nsnc4ccc3n12` is 4-fold lower in MIC: 40 µg/mL (≈ 79.9 µM) for the first, 10 µg/mL (≈ 17.3 µM) for the second.

Compound `O=c1oc2c(Cl)cc(Cl)cc2cc1-c1nc2ccccc2c2nc3c4nsnc4ccc3n12` has an MIC of 45 µg/mL (≈ 91.8 µM).

System: Escherichia coli
Assay: Antibacterial activity against Escherichia coli by liquid dilution method
Assay type: functional
Conditions: not given

First: O=c1oc2c(Br)cccc2cc1-c1nc2ccccc2c2nc3c4nsnc4ccc3n12
Second: O=c1oc2c(Br)cc(Br)cc2cc1-c1nc2ccccc2c2nc3c4nsnc4ccc3n12
The MIC of the first is 3.5-fold higher: 35 µg/mL (≈ 70 µM) for the first, 10 µg/mL (≈ 17.3 µM) for the second.

Compound `O=c1oc2c(Cl)cc(Cl)cc2cc1-c1nc2ccccc2c2nc3c4nsnc4ccc3n12` has an MIC of 30 µg/mL (≈ 61.2 µM).

System: Candida albicans
Assay: Antifungal activity against Candida albicans at 1000 ug/mL after 72 hrs by agar diffusion assay
Assay type: functional
Conditions: read-out: IZ

First: O=c1oc2c(Br)cccc2cc1-c1nc2ccccc2c2nc3c4nsnc4ccc3n12
Second: O=c1oc2c(Br)cc(Br)cc2cc1-c1nc2ccccc2c2nc3c4nsnc4ccc3n12
The zone of inhibition at 1000 µg/mL of the first is lower: 29 mm for the first, 32 mm for the second.

With `O=c1oc2c(Cl)cc(Cl)cc2cc1-c1nc2ccccc2c2nc3c4nsnc4ccc3n12` the zone of inhibition at 1000 µg/mL was 26 mm.
